Data published in patent US6734190B2, “Dihydrodipyrazolopyridinylbenzamide and -sulfonamide inhibitors of B7-1” (Wyeth, priority 2002, dated 2004).
pIC50: −log10 of the molar value.

Target: T1, B7-1/CD28 (Homo sapiens, UniProt P33681)
T1 sequence (P33681 35-242 limits assumed): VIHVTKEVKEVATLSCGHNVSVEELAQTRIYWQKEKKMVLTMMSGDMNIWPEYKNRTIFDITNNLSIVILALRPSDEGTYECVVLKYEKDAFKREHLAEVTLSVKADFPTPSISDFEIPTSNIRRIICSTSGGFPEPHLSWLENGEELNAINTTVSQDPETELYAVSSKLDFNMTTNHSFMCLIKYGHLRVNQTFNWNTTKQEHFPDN
Test: CD28/B7-1 ELISA (B7-1/CD28 binding inhibition)
Details: CD28-Fc coated wells; B7-1-Fc-biotin/streptavidin-alkaline phosphatase detection complex; 1% DMSO
Description: Evaluation of B7-1/CD28 Binding Inhibition for Test Compounds
Wells are coated with 300 ng CD28-Fc in carbonate buffer (pH 9.4) overnight at 4° C., blocked with 1% bovine serum albumin in tris-buffered saline (TBS) for 1 h at 22° C. and washed 3 times in TBS prior to assay. The detection complex is formed as follows: B7-1-Fc-biotin, prepared using NHS-LC-biotin (Pierce #21335) according to the manufacturers instructions (4.1 moles biotinimole Fc), is added at 0.8 ug/ml to streptavidin-alkaline phosphatase (Caltag Sa1008) at 1:1000 in TBS. A solution of test compound in dimethylsulfoxide (1% final) are added to this complex and incubated 30 min at 22° C. Detection complex (+/−inhibitors) is then added to the CD28 coated wells for 25 min at 22° C., washed 5 times with TBS, developed with the colorimetric substrate pNPP (Pierce #34045) in diethanolamine/MgCl2 buffer (pH 9.5) and read at 405 nm. The inhibition constant (IC50) is calculated by subtracting background binding and comparing to uninhibited (DMSO alone) controls. The inhibition constant represents the concentration of test compound required to achieve 50% inhibition.

pIC50 | Compound
7.27 | Cn1ncc2c3[nH]n(-c4cccc(C(=O)N5CCOCC5)c4)c(=O)c3c(-c3cccc(C(F)(F)F)c3)nc21 [Example 6]
7.42 | Cn1ncc2c3[nH]n(-c4cccc(C(=O)Nc5ccc(O)cc5)c4)c(=O)c3c(-c3cccc(C(F)(F)F)c3)nc21 [Example 7, N-(4-hydroxyphenyl)-3-(6-methyl-3-oxo-4-[3-(trifluoromethyl)phenyl]-3,6-dihydrodipyrazolo[3,4-b:3,4-d]pyridin-2(1H)-yl)benzamide]
7.15 | Cn1ncc2c3[nH]n(-c4cccc(C(=O)N5CCSCC5)c4)c(=O)c3c(-c3cccc(C(F)(F)F)c3)nc21 [Example 10]
7.10 | Cn1ncc2c3[nH]n(-c4cccc(C(=O)NCC5CC5)c4)c(=O)c3c(-c3cccc(C(F)(F)F)c3)nc21 [Example 12]
7.21 | CN(CCO)C(=O)c1cccc(-n2[nH]c3c(c(-c4cccc(C(F)(F)F)c4)nc4c3cnn4C)c2=O)c1 [Example 14]
7.20 | COC(=O)c1cn(C(=O)c2cccc(-n3[nH]c4c(c(-c5cccc(C(F)(F)F)c5)nc5c4cnn5C)c3=O)c2)c2ccccc12 [Example 15]
7.35 | CC(O)CNC(=O)c1cccc(-n2[nH]c3c(c(-c4cccc(C(F)(F)F)c4)nc4c3cnn4C)c2=O)c1 (stereo not drawn) [Example 19, N-(2-hydroxypropyl)-3-(6-methyl-3-oxo-4-[3-(trifluoromethyl)phenyl]-3,6-dihydrodipyrazolo[3,4-b:3,4-d]-pyridin-2(1H)-yl)benzamide]
7.21 | COCCNC(=O)c1cccc(-n2[nH]c3c(c(-c4cccc(C(F)(F)F)c4)nc4c3cnn4C)c2=O)c1 [Example 20]
7.37 | Cn1ncc2c3[nH]n(-c4ccc(Cl)c(C(=O)N5CCC[C@@H]5CO)c4)c(=O)c3c(-c3cccc(C(F)(F)F)c3)nc21 [Example 23, 2-(4-chloro-3-{[(2R)-2-(hydroxymethyl)pyrrolidin-1-yl]carbonyl}phenyl)-6-methyl-4-[3-(trifluoromethyl)phenyl]-1,6-dihydrodipyrazolo[3,4-b:3,4-d]pyridin-3(2H)-one]
7.77 | Cn1ncc2c3[nH]n(-c4ccc(C(=O)Nc5cccc(CO)c5)cc4)c(=O)c3c(-c3cccc(C(F)(F)F)c3)nc21 [Example 35, N-[3-(hydroxymethyl)phenyl]4-(6-methyl-3-oxo-4-[3-(trifluoromethyl)phenyl]-3,6-dihydrodipyrazolo[3,4-b:3,4-d]pyridin-2(1H)-yl)benzamide]
7.10 | Cn1ncc2c3[nH]n(-c4cccc(C(=O)NN)c4)c(=O)c3c(-c3cccc(C(F)(F)F)c3)nc21 [Example 44]
7.00 | COC(=O)CNC(=O)c1cccc(-n2[nH]c3c(c(-c4cccc(C(F)(F)F)c4)nc4c3cnn4C)c2=O)c1 [Example 45]
6.82 | Cn1ncc2c3[nH]n(-c4cccc(C(=O)NCCOCCOCCN)c4)c(=O)c3c(-c3cccc(C(F)(F)F)c3)nc21 [Example 46]
6.55 | Cn1ncc2c3[nH]n(-c4cccc(C(=O)Nc5ccc(F)c(F)c5)c4)c(=O)c3c(-c3cccc(C(F)(F)F)c3)nc21 [Example 47]
6.36 | CCOC(=O)c1cccc(NC(=O)c2cccc(-n3[nH]c4c(c(-c5cccc(C(F)(F)F)c5)nc5c4cnn5C)c3=O)c2)c1 [Example 48]
6.92 | Cn1ncc2c3[nH]n(-c4cccc(C(=O)NCc5ccccc5)c4)c(=O)c3c(-c3cccc(C(F)(F)F)c3)nc21 [Example 49]
7.00 | Cn1ncc2c3[nH]n(-c4cccc(C(=O)Nc5cccc(CO)c5)c4)c(=O)c3c(-c3cccc(C(F)(F)F)c3)nc21 [Example 50]
6.89 | CC(O)c1cccc(NC(=O)c2cccc(-n3[nH]c4c(c(-c5cccc(C(F)(F)F)c5)nc5c4cnn5C)c3=O)c2)c1 (stereo not drawn) [Example 51]
6.52 | Cn1ncc2c3[nH]n(-c4cccc(C(=O)N5CCc6ccccc6C5)c4)c(=O)c3c(-c3cccc(C(F)(F)F)c3)nc21 [Example 52]

pIC50 | Compound
6.57 | COC(=O)[C@H]1CCCN1C(=O)c1cccc(-n2[nH]c3c(c(-c4cccc(C(F)(F)F)c4)nc4c3cnn4C)c2=O)c1 [Example 53]
6.07 | Cn1ncc2c3[nH]n(-c4cccc(C(=O)N5CCC(C(=O)O)CC5)c4)c(=O)c3c(-c3cccc(C(F)(F)F)c3)nc21 [Example 54]
6.96 | Cn1ncc2c3[nH]n(-c4cccc(C(=O)Nc5ccc(CCO)cc5)c4)c(=O)c3c(-c3cccc(C(F)(F)F)c3)nc21 [Example 55]
6.74 | CN(Cc1ccccc1)C(=O)c1cccc(-n2[nH]c3c(c(-c4cccc(C(F)(F)F)c4)nc4c3cnn4C)c2=O)c1 [Example 56]
7.04 | CC1CCCN(C(=O)c2cccc(-n3[nH]c4c(c(-c5cccc(C(F)(F)F)c5)nc5c4cnn5C)c3=O)c2)C1 (stereo not drawn) [Example 57]
6.96 | CCN(CC)C(=O)C1CCCN(C(=O)c2cccc(-n3[nH]c4c(c(-c5cccc(C(F)(F)F)c5)nc5c4cnn5C)c3=O)c2)C1 (stereo not drawn) [Example 58]
6.98 | Cn1ncc2c3[nH]n(-c4cccc(C(=O)N5CCC(O)CC5)c4)c(=O)c3c(-c3cccc(C(F)(F)F)c3)nc21 [Example 59]
6.74 | COc1ccc(CNC(=O)c2cccc(-n3[nH]c4c(c(-c5cccc(C(F)(F)F)c5)nc5c4cnn5C)c3=O)c2)cc1 [Example 60]
6.48 | CN(CCC#N)C(=O)c1cccc(-n2[nH]c3c(c(-c4cccc(C(F)(F)F)c4)nc4c3cnn4C)c2=O)c1 [Example 61]
6.42 | Cn1ncc2c3[nH]n(-c4ccc(F)c(C(=O)Nc5ccc(CCO)cc5)c4)c(=O)c3c(-c3cccc(C(F)(F)F)c3)nc21 [Example 62]
6.74 | COCCCNC(=O)c1cccc(-n2[nH]c3c(c(-c4cccc(C(F)(F)F)c4)nc4c3cnn4C)c2=O)c1 [Example 63]
6.74 | COC(=O)[C@H]1CCCN1C(=O)c1cc(-n2[nH]c3c(c(-c4cccc(C(F)(F)F)c4)nc4c3cnn4C)c2=O)ccc1Cl [Example 64]
6.00 | CC(O)c1cccc(NC(=O)c2cc(-n3[nH]c4c(c(-c5cccc(C(F)(F)F)c5)nc5c4cnn5C)c3=O)ccc2F)c1 (stereo not drawn) [Example 65]
5.62 | Cn1ncc2c3[nH]n(-c4ccc(F)c(C(=O)N5CCOCC5)c4)c(=O)c3c(-c3cccc(C(F)(F)F)c3)nc21 [Example 66]
6.43 | Cn1ncc2c3[nH]n(-c4ccc(F)c(C(=O)Nc5ccc(CO)cc5)c4)c(=O)c3c(-c3cccc(C(F)(F)F)c3)nc21 [Example 68]
7.42 | Cn1ncc2c3[nH]n(-c4ccc(C(N)=O)cc4)c(=O)c3c(-c3cccc(C(F)(F)F)c3)nc21 [Example 70]
6.85 | Cn1ncc2c3[nH]n(-c4ccc(C(=O)Nc5cccc(O)c5)cc4)c(=O)c3c(-c3cccc(C(F)(F)F)c3)nc21 [Example 71]
6.96 | CN(CCC#N)C(=O)c1ccc(-n2[nH]c3c(c(-c4cccc(C(F)(F)F)c4)nc4c3cnn4C)c2=O)cc1 [Example 72]
7.96 | Cn1ncc2c3[nH]n(-c4ccc(C(=O)Nc5ccc(O)cc5)cc4)c(=O)c3c(-c3cccc(C(F)(F)F)c3)nc21 [Example 73]

Compound | pIC50
COC(CN(C)C(=O)c1cccc(-n2[nH]c3c(c(-c4cccc(C(F)(F)F)c4)nc4c3cnn4C)c2=O)c1)OC [Example 8, N-(2,2-dimethoxyethyl)-N-methyl-3-(6-methyl-3-oxo-4-[3-(trfluoromethyl)phenyl]-3,6-dihydrodipyrazolo[3,4-b:3,4-d]pyridin-2(1H)-yl)benzamide] | 7.51
